By IC50 is commonly meant the point on the concentration scale where inhibition reaches its midpoint. The term Ki denotes a dissociation constant, usually derived from enzyme kinetics or from competition with a known ligand. The solubility is how much of the substance goes into solution per volume. Lower therefore signals a poorly soluble substance. As usually defined, the inhibition is the change of the read-out against control, counted positive when it falls.

Structures are written as SMILES. In brackets after ≈: the same amount, converted by molar mass.

This is an account of results in ChEMBL document CHEMBL5233266, “β-Carboline as a Privileged Scaffold for Multitarget Strategies in Alzheimer's Disease Therapy” (J Med Chem, 2021).

For data set [1], the target named is T1, Gamma-aminobutyric acid receptor subunit alpha-3 (Homo sapiens, UniProt P34903).
T1 sequence (P34903 whole entry): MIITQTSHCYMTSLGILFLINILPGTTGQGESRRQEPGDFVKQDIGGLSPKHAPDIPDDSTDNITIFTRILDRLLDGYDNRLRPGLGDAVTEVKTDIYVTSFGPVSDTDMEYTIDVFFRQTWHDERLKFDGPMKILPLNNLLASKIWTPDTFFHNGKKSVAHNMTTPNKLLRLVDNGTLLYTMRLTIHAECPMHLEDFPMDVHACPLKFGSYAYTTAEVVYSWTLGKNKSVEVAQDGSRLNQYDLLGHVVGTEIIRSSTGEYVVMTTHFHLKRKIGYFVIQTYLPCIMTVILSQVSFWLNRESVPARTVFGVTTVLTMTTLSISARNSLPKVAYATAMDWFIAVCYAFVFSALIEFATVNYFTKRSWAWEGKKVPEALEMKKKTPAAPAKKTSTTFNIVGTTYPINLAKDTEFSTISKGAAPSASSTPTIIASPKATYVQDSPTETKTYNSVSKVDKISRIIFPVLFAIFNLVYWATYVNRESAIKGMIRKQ
The data set is described as follows: Inhibition of GABAA alpha3 receptor (unknown origin).

The target in data set [2] is T2, Gamma-aminobutyric acid receptor subunit alpha-2 (Homo sapiens, UniProt P47869).
T2 sequence (P47869 whole entry): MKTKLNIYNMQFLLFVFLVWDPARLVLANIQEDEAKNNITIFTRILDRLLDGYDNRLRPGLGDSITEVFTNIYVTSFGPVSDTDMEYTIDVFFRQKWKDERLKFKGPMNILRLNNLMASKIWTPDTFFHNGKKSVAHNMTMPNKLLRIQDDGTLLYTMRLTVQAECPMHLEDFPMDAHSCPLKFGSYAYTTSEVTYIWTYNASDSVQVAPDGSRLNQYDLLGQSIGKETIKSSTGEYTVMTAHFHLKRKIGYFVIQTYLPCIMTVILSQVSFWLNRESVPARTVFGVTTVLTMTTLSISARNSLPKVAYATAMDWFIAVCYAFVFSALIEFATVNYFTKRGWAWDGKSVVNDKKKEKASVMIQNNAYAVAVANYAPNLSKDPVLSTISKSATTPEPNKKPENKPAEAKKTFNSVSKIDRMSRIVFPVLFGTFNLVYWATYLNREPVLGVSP
The data set is described as follows: Binding affinity to human recombinant GABAA alpha2 receptor assessed as inhibition constant incubated for 1 hrs by liquid scintillation counting analysis.

The target in data set [3] is T1, Gamma-aminobutyric acid receptor subunit alpha-3. The data set is described as follows: Binding affinity to human recombinant GABAA alpha3 receptor assessed as inhibition constant incubated for 1 hrs by liquid scintillation counting analysis.
Data set [4] deals with T3, Gamma-aminobutyric acid receptor subunit alpha-6 (Homo sapiens, UniProt Q16445). As to the kind of experiment: Binding affinity to GABAA alpha6 receptor (unknown origin) assessed as inhibition constant.
T3 sequence (Q16445 whole entry): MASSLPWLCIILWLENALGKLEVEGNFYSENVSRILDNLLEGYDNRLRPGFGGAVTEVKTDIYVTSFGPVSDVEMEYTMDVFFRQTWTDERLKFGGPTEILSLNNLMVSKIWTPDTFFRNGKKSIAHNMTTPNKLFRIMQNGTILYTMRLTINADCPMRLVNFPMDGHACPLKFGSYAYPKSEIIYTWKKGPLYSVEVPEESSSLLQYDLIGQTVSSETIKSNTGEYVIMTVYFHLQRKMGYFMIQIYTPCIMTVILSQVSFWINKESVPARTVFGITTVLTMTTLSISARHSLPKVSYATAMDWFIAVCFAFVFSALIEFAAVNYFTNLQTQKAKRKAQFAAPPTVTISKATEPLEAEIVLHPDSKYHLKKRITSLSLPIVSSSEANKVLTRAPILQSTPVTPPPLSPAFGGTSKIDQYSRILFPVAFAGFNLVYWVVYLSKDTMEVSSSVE
In data set [5] the target is T2, Gamma-aminobutyric acid receptor subunit alpha-2. As to the kind of experiment: Inhibition of GABAA alpha2 receptor (unknown origin).
In data set [6] the target is T4, Gamma-aminobutyric acid receptor subunit alpha-5 (Homo sapiens, UniProt P31644).
T4 sequence (P31644 whole entry): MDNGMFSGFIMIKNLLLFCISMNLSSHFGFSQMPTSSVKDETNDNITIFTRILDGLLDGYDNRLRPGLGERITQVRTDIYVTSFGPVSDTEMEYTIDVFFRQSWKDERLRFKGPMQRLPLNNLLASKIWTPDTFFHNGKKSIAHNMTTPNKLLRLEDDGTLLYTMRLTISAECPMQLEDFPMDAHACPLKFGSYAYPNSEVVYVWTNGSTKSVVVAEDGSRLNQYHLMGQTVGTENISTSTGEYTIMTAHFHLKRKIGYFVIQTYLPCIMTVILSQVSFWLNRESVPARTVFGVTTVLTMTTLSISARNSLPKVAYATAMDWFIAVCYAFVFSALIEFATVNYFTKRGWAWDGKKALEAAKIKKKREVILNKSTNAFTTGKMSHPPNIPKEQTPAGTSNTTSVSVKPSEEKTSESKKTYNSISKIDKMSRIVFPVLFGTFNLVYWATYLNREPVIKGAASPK
The data set is described as follows: Binding affinity to human recombinant GABAA alpha5 receptor assessed as inhibition constant incubated for 1 hrs by liquid scintillation counting analysis.

Data set [7] deals with T3, Gamma-aminobutyric acid receptor subunit alpha-6. As to the kind of experiment: Binding affinity to human recombinant GABAA alpha6 receptor assessed as inhibition constant incubated for 1 hrs by liquid scintillation counting analysis.
For data set [8], the target named is T5, Gamma-aminobutyric acid receptor subunit alpha-1 (Homo sapiens, UniProt P14867).
T5 sequence (P14867 whole entry): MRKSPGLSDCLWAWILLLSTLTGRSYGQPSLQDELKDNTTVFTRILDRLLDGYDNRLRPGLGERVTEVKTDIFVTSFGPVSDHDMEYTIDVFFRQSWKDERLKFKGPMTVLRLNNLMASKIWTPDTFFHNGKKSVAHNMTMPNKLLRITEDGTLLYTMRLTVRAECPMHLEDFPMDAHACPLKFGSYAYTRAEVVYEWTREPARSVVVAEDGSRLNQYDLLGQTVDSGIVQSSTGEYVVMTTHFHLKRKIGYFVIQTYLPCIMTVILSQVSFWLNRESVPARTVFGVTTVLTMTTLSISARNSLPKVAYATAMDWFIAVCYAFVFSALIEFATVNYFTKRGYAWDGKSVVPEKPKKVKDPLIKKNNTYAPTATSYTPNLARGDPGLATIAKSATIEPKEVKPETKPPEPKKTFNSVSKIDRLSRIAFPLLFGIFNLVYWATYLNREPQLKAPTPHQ
The data set is described as follows: Inhibition of GABAA alpha1 receptor (unknown origin).

In data set [9] the target is T4, Gamma-aminobutyric acid receptor subunit alpha-5. The data set is described as follows: Inhibition of GABAA alpha5 receptor (unknown origin).
For data set [10], the target named is T5, Gamma-aminobutyric acid receptor subunit alpha-1. As to the kind of experiment: Binding affinity to human recombinant GABAA alpha1 receptor assessed as inhibition constant incubated for 1 hrs by liquid scintillation counting analysis.
The target of data set [11] is Acetylcholinesterase (Homo sapiens, UniProt P22303). The data set is described as follows: Inhibition of AChE (unknown origin).
Sequence of Acetylcholinesterase (P22303 whole entry): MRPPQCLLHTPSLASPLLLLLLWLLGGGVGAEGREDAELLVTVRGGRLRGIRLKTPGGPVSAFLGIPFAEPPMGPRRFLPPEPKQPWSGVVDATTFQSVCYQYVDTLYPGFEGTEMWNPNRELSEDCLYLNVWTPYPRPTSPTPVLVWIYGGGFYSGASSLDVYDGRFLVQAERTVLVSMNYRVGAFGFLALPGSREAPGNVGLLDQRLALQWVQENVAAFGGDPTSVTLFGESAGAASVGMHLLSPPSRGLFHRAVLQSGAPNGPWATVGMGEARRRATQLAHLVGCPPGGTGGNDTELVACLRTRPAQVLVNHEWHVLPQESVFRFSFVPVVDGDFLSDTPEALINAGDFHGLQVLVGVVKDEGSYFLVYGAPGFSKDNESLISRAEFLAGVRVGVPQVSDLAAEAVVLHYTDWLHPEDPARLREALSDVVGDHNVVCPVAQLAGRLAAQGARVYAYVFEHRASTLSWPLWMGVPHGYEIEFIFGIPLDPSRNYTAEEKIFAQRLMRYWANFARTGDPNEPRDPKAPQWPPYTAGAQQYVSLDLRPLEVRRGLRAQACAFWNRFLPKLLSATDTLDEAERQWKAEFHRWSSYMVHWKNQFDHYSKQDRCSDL
The nature of data set [12]: Aqueous solubility of compound. The data set is classed as physicochemical. The settings on record: water.
Data set [13] concerns the target cGMP-specific 3',5'-cyclic phosphodiesterase (Homo sapiens, UniProt O76074). The data set is described as follows: Inhibition of PDE5 (unknown origin).
For data set [14], the target named is Beta-secretase 1 (Homo sapiens, UniProt P56817). The data set is described as follows: Inhibition of BACE1 (unknown origin) expressed in HEK293 cells by FRET assay. The data set is classed as cell-based.
Sequence of Beta-secretase 1 (P56817 whole entry): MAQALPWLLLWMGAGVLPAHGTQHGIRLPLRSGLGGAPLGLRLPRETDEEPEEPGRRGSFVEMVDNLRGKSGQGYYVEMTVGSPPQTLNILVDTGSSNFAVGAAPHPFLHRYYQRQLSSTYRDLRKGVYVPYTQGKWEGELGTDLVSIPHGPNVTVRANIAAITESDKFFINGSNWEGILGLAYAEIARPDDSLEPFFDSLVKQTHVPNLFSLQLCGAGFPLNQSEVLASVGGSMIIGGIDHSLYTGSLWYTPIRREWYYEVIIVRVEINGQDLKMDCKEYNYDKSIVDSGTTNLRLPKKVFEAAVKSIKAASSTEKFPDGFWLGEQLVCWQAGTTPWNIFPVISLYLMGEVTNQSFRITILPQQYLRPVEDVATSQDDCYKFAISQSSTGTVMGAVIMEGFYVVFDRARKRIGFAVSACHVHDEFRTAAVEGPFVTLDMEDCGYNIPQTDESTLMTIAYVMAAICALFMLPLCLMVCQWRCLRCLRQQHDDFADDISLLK
For data set [15], the target named is Cholinesterase (Homo sapiens, UniProt P06276). The data set is described as follows: Inhibition of BuChE (unknown origin) assessed as inhibition of A-beta aggregation at 100 uM relative to control.
Sequence of Cholinesterase (P06276 whole entry): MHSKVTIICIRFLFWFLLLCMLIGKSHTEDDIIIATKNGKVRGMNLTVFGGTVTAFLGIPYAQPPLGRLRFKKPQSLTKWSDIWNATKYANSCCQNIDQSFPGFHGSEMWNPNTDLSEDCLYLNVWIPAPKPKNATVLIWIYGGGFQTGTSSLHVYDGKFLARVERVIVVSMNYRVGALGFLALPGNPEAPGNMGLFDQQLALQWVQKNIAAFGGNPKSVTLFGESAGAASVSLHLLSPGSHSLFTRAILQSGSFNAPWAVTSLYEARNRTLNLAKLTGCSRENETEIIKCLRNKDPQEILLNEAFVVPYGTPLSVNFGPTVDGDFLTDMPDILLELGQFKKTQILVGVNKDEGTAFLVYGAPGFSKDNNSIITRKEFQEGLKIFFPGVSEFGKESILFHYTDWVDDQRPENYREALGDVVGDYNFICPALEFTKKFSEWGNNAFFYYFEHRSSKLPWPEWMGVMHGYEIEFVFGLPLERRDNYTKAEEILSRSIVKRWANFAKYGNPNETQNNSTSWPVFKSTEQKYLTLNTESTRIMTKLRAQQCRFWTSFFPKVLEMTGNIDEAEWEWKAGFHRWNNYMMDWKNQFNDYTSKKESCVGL
Data set [16] deals with 5-hydroxytryptamine receptor 2C (Rattus norvegicus, UniProt P08909). The data set is described as follows: Displacement of [3H]-ketanserin from rat 5-HT2C expressed in mouse NIH/3T3 cells assessed as inhibition constant by Cheng-Prusoff equation analysis. The data set is classed as cell-based. (In a radioligand displacement assay an active substance lowers the binding of a labelled ligand.)
Sequence of 5-hydroxytryptamine receptor 2C (P08909 whole entry): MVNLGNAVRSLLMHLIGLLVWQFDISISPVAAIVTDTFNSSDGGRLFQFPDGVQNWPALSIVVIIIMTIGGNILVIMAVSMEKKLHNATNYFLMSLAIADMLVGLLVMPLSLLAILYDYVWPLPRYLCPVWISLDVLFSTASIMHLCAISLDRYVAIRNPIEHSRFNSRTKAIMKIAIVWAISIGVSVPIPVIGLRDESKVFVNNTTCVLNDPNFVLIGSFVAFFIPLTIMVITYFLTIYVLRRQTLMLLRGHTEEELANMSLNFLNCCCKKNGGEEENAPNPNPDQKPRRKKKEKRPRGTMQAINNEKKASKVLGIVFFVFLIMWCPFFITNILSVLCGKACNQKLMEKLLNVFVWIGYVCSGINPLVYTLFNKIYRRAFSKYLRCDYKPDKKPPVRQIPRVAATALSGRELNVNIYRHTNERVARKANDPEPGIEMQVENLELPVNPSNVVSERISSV

Data set [17] addresses 5-hydroxytryptamine receptor 2A (Rattus norvegicus, UniProt P14842). The data set is described as follows: Displacement of [3H]-ketanserin from rat 5-HT2A expressed in mouse NIH/3T3 cells assessed as inhibition constant by Cheng-Prusoff equation analysis. The data set is classed as cell-based.
The target in data set [18] is 5-hydroxytryptamine receptor 2B (Rattus norvegicus, UniProt P30994). As to the kind of experiment: Displacement of [3H]-ketanserin from rat 5-HT2B expressed in mouse NIH/3T3 cells assessed as inhibition constant by Cheng-Prusoff equation analysis. The data set is classed as cell-based.
Sequence of 5-hydroxytryptamine receptor 2B (Rattus norvegicus, UniProt P30994) (P30994 whole entry): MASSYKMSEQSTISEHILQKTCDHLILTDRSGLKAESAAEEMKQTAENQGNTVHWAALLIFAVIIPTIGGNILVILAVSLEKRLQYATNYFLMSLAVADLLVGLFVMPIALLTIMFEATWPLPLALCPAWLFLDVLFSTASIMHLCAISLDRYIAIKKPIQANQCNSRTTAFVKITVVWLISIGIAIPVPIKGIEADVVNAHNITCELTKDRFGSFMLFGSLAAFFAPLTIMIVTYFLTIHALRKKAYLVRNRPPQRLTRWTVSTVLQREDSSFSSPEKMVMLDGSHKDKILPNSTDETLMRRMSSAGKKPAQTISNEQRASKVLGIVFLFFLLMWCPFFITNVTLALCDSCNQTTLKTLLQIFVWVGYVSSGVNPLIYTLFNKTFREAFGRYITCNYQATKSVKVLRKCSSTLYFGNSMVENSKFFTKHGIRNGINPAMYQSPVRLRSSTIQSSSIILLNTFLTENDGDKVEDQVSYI
In data set [19] the target is 5-hydroxytryptamine receptor 2B (Homo sapiens, UniProt P41595). The data set is described as follows: Binding affinity to 5-HT2B (unknown origin) assessed as equilibrium binding constant.
Sequence of 5-hydroxytryptamine receptor 2B (Homo sapiens, UniProt P41595) (P41595 whole entry): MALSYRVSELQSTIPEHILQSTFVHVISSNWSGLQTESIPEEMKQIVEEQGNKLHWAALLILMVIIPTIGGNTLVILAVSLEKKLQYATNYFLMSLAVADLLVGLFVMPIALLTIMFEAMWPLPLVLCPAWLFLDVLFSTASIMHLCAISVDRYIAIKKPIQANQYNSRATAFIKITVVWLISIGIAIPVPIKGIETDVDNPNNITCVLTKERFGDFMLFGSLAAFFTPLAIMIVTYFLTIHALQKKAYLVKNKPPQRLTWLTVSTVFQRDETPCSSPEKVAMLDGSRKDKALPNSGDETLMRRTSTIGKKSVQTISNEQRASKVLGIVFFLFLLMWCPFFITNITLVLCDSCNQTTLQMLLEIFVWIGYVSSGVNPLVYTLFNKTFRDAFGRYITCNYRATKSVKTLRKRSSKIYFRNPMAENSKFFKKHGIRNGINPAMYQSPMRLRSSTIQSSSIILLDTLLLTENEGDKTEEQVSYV

Sequence of 5-hydroxytryptamine receptor 2A (P14842 whole entry): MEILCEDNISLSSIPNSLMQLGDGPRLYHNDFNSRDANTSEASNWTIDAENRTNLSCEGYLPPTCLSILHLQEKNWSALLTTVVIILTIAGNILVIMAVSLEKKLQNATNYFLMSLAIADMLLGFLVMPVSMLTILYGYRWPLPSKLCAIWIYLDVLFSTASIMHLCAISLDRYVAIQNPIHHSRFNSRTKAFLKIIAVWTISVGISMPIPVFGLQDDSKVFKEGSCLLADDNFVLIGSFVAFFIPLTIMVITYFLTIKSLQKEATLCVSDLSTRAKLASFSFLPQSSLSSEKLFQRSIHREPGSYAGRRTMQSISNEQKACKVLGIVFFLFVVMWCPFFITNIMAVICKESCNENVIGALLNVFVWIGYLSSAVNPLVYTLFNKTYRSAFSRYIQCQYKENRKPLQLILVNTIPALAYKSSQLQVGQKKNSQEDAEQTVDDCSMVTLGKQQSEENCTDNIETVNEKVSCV

As to `c1ccc2c(c1)[nH]c1cnc3c4cccnc4[nH]c3c12`, the IC50 in data set [1] worked out at 16 nM; in data set [5], 12 nM; in [8], 2 nM; in [9] it was 200 nM. The Ki was 12 nM in data set [2]; 16 nM in [3]; above 10000 nM in data set [4]; 200 nM in [6]; above 10000 nM in data set [7]; 2 nM in [10].
Consider `COc1ccc([C@@H]2c3[nH]c4ccccc4c3C[C@@H]3C(=O)N(CCC4CCN(Cc5ccccc5)CC4)CC(=O)N23)cc1`, for which the IC50 stood at 31 nM in data set [11] and 200 nM in data set [13]. In [12], this molecule yielded a solubility of 1400 µg/mL (≈ 2490 µM).
`OC[C@@H]1Cc2c([nH]c3ccccc23)CN1Cc1cn(C[C@@H]2Cc3c([nH]c4ccccc34)CN2)nn1` showed an IC50 in data set [14] of 17000 nM.
`Cc1ccc2[nH]c3c4[n+](ccc3c2c1)-c1ccccc1C4=O`: the inhibition in data set [15] worked out at 38%.
For `COc1ccc(CC2NCCc3c2[nH]c2c(C)c(C)ccc32)c(Br)c1OC` (centres undefined), the Ki amounted to 8 nM in data set [16], 9 nM in data set [17] and 0.08 nM in data set [18]. In addition, the Kb in data set [19] came out at 0.08 nM.
